Key:
[1] = molecular target: T1, Serine/threonine-protein kinase BRSK1 (Homo sapiens) (UniProt Q8TDC3); test: Inhibition of BRSK1 (unknown origin) assessed as remaining activity at 1 uM by Kinome scan method relative to control
T1 sequence (whole entry): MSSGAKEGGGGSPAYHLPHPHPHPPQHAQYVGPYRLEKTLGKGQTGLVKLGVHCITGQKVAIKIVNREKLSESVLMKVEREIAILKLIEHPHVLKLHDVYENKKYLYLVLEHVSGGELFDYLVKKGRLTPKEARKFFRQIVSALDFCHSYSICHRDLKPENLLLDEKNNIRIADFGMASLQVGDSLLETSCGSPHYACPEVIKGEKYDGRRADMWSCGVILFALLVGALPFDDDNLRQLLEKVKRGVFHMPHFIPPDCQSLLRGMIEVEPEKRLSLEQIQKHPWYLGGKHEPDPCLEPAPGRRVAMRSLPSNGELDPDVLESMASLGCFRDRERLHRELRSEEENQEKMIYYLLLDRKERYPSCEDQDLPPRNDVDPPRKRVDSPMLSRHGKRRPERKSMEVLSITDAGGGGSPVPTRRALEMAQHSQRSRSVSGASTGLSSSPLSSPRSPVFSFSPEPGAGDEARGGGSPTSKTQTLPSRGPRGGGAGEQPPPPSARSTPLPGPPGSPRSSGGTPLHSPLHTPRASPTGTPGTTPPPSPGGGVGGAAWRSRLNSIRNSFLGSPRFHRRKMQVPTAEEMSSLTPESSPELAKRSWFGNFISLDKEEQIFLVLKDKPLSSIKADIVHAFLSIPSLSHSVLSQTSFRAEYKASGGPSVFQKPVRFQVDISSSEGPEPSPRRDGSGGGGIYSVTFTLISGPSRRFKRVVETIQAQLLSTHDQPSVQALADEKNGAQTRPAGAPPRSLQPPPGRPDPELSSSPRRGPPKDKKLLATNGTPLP

[2] = molecular target: Cyclin-dependent kinase 11A (Homo sapiens) (UniProt Q9UQ88); test: Inhibition of CDC2L2 (unknown origin) assessed as remaining activity at 1 uM by Kinome scan method relative to control
[3] = molecular target: Fibroblast growth factor receptor 3 (Homo sapiens) (UniProt P22607); test: Inhibition of FGFR3 (unknown origin) assessed as remaining activity at 1 uM by Kinome scan method relative to control
[4] = molecular target: LIM domain kinase 1 (Homo sapiens) (UniProt P53667); test: Inhibition of LIMK1 (unknown origin) assessed as remaining activity at 1 uM by Kinome scan method relative to control
[5] = molecular target: Tyrosine-protein kinase Lyn (Homo sapiens) (UniProt P07948); test: Inhibition of LYN (unknown origin) assessed as remaining activity at 1 uM by Kinome scan method relative to control
[6] = molecular target: Mitogen-activated protein kinase kinase kinase 4 (Homo sapiens) (UniProt Q9Y6R4); test: Inhibition of MAP3K4 (unknown origin) assessed as remaining activity at 1 uM by Kinome scan method relative to control
[7] = molecular target: MAP kinase-activated protein kinase 2 (Homo sapiens) (UniProt P49137); test: Inhibition of MAPKAPK2 (unknown origin) assessed as remaining activity at 1 uM by Kinome scan method relative to control
[8] = molecular target: Serine/threonine-protein kinase MARK2 (Homo sapiens) (UniProt Q7KZI7); test: Inhibition of MARK2 (unknown origin) assessed as remaining activity at 1 uM by Kinome scan method relative to control
[9] = molecular target: Dual specificity mitogen-activated protein kinase kinase 2 (Homo sapiens) (UniProt P36507); test: Inhibition of MEK2 (unknown origin) assessed as remaining activity at 1 uM by Kinome scan method relative to control
[10] = molecular target: Misshapen-like kinase 1 (Homo sapiens) (UniProt Q8N4C8); test: Inhibition of MINK (unknown origin) assessed as remaining activity at 1 uM by Kinome scan method relative to control
[11] = molecular target: T2, Myosin light chain kinase (Homo sapiens) (UniProt Q32MK0); test: Inhibition of MLCK (unknown origin) assessed as remaining activity at 1 uM by Kinome scan method relative to control
T2 sequence (whole entry): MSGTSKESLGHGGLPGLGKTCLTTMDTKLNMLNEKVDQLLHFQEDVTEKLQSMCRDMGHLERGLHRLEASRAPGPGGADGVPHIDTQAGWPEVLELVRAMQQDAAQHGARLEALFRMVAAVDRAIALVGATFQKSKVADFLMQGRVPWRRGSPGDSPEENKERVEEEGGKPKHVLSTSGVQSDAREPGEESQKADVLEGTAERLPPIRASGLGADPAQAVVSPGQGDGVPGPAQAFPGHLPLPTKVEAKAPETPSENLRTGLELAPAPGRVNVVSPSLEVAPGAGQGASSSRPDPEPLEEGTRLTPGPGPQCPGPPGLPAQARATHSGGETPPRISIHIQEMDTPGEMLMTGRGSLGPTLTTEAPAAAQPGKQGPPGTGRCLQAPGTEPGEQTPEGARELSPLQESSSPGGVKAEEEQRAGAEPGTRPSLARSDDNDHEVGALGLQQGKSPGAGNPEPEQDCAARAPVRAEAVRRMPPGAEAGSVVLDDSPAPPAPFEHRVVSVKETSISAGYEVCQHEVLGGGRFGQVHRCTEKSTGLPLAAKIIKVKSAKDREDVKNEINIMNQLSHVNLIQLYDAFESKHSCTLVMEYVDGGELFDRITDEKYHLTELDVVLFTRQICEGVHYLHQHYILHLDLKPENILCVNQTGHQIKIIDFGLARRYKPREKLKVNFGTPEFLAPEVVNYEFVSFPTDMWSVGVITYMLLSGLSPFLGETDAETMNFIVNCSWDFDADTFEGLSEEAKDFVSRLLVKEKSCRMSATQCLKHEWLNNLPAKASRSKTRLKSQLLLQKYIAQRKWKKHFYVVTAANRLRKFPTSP

[12] = test system: Phosphatidylinositol 4,5-bisphosphate 3-kinase catalytic subunit alpha isoform (Homo sapiens), P42336 [M1043I]; test: Inhibition of PIK3CA M1043I mutant (unknown origin) assessed as remaining activity at 1 uM by Kinome scan method relative to control
[13] = molecular target: Phosphatidylinositol 4,5-bisphosphate 3-kinase catalytic subunit delta isoform (Homo sapiens) (UniProt O00329); test: Inhibition of PIK3CD (unknown origin) assessed as remaining activity at 1 uM by Kinome scan method relative to control
[14] = molecular target: cAMP-dependent protein kinase catalytic subunit alpha (Homo sapiens) (UniProt P17612); test: Inhibition of PKAC-alpha (unknown origin) assessed as remaining activity at 1 uM by Kinome scan method relative to control
[15] = molecular target: SRSF protein kinase 2 (Homo sapiens) (UniProt P78362); test: Inhibition of SRPK2 (unknown origin) assessed as remaining activity at 1 uM by Kinome scan method relative to control

Sequence of Misshapen-like kinase 1 (Homo sapiens) (Q8N4C8 whole entry, looked up): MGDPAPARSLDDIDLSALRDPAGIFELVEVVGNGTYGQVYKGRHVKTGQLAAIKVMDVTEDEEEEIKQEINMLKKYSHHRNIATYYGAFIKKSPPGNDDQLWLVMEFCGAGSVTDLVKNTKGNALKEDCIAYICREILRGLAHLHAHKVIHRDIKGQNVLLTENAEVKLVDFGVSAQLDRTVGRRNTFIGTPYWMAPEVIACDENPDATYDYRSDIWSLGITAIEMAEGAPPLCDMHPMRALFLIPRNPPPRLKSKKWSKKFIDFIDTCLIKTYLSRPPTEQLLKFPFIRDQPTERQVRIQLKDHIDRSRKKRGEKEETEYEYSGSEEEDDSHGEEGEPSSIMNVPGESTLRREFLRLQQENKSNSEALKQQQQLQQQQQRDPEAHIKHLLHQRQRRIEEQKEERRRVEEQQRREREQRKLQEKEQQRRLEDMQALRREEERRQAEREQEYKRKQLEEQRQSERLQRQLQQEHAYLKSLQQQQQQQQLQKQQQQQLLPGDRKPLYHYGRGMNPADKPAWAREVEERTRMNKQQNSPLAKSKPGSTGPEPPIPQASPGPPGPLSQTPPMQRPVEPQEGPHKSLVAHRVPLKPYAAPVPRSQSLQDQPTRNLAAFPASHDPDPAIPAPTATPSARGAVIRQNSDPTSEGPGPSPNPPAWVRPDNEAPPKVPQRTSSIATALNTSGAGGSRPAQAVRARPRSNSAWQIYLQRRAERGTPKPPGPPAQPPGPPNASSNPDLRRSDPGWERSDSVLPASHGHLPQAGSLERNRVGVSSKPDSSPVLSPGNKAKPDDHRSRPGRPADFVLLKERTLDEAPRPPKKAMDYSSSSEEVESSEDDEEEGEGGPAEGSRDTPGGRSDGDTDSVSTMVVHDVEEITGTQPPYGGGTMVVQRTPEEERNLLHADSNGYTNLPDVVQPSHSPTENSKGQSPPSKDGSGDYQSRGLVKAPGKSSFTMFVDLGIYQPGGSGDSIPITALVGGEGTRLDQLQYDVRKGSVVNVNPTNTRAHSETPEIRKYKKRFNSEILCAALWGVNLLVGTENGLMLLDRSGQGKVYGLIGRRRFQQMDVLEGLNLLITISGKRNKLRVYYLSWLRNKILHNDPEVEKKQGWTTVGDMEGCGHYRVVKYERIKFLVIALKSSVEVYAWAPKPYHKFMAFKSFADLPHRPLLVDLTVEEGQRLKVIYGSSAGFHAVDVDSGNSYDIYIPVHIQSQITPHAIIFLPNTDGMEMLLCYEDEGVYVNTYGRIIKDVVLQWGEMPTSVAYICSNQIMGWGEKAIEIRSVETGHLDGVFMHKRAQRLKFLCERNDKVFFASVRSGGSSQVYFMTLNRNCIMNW
Sequence of Tyrosine-protein kinase Lyn (Homo sapiens) (P07948 2-512 limits assumed): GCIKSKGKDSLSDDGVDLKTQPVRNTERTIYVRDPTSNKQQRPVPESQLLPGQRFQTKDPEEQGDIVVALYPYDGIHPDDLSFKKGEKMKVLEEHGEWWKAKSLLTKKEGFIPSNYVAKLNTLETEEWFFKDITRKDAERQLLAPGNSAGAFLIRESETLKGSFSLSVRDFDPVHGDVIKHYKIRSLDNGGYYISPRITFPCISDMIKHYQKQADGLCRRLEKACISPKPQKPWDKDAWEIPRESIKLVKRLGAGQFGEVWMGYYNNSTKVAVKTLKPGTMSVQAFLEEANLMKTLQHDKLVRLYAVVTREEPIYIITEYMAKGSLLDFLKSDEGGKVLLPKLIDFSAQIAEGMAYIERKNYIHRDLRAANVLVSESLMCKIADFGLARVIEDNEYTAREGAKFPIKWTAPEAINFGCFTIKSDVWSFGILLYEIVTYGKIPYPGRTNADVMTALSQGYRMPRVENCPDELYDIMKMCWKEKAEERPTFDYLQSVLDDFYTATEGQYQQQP
Sequence of Fibroblast growth factor receptor 3 (Homo sapiens) (P22607 23-806 limits assumed): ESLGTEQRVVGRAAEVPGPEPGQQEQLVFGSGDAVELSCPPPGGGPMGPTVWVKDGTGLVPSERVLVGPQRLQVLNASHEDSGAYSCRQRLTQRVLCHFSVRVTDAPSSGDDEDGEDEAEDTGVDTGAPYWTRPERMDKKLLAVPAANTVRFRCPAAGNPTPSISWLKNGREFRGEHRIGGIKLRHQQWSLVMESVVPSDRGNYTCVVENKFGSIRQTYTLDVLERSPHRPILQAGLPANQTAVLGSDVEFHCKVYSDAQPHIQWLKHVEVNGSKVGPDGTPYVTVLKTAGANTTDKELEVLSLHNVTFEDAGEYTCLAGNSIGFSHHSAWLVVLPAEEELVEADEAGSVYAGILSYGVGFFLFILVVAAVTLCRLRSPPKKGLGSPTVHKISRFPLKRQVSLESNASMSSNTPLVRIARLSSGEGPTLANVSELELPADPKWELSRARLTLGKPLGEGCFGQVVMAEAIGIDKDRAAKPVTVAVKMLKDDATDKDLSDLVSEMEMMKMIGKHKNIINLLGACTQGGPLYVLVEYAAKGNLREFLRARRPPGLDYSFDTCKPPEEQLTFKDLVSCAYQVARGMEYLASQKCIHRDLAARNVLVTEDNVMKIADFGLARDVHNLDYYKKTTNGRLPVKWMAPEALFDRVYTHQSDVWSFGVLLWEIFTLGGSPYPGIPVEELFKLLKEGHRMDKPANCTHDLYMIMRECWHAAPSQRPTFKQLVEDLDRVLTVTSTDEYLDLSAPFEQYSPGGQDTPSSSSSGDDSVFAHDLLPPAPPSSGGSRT
Sequence of MAP kinase-activated protein kinase 2 (Homo sapiens) (P49137 whole entry, looked up): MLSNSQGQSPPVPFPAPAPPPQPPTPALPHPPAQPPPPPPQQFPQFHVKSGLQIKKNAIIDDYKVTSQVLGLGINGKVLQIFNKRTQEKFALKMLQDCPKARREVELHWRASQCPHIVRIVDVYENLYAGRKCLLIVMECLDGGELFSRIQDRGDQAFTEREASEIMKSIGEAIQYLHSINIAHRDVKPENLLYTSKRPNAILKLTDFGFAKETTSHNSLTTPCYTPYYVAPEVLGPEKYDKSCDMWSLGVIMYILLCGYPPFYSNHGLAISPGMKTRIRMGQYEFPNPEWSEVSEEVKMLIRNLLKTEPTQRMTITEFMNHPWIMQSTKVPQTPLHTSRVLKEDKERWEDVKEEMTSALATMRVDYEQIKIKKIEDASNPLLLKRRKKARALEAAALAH
Sequence of Mitogen-activated protein kinase kinase kinase 4 (Homo sapiens) (Q9Y6R4 whole entry): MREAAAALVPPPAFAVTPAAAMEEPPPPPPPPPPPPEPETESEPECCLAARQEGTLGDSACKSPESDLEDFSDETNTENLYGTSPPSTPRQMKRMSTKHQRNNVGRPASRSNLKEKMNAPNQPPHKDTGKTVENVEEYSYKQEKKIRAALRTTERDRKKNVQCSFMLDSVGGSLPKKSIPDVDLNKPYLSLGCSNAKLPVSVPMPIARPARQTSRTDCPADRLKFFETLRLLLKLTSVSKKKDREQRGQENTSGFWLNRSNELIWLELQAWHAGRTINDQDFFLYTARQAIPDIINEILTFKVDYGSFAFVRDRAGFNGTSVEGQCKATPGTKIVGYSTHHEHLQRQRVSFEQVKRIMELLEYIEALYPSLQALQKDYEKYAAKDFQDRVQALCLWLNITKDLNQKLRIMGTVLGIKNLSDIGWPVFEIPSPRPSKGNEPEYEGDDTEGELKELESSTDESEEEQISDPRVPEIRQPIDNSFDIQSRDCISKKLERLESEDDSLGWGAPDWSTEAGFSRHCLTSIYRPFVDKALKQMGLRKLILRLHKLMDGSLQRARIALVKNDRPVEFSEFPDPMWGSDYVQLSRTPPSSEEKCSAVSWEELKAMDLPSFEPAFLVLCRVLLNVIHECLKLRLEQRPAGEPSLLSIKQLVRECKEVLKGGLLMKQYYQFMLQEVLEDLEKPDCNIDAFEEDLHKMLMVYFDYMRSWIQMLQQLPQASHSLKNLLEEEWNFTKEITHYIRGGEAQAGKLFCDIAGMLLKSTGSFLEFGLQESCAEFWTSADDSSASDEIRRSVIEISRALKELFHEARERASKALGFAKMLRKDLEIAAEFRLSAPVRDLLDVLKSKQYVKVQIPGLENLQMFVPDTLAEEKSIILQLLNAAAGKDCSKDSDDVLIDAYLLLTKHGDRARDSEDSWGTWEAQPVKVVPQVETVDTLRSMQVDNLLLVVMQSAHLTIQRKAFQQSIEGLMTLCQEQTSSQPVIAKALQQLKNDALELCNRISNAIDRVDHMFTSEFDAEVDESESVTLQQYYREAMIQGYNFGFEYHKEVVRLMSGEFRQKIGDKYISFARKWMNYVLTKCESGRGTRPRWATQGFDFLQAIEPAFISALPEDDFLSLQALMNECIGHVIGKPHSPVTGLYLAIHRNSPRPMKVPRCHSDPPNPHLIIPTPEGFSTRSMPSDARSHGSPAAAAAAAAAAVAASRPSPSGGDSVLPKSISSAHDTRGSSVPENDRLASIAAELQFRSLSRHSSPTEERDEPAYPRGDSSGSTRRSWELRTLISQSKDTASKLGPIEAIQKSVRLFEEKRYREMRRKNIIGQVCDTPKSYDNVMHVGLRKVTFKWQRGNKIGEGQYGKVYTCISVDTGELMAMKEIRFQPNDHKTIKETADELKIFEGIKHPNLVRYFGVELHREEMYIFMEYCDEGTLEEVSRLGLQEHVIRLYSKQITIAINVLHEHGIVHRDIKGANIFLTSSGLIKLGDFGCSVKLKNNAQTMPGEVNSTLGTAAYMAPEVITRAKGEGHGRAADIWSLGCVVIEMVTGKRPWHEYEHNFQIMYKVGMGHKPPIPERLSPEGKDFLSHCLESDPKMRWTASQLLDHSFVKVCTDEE
Sequence of Dual specificity mitogen-activated protein kinase kinase 2 (Homo sapiens) (P36507 whole entry): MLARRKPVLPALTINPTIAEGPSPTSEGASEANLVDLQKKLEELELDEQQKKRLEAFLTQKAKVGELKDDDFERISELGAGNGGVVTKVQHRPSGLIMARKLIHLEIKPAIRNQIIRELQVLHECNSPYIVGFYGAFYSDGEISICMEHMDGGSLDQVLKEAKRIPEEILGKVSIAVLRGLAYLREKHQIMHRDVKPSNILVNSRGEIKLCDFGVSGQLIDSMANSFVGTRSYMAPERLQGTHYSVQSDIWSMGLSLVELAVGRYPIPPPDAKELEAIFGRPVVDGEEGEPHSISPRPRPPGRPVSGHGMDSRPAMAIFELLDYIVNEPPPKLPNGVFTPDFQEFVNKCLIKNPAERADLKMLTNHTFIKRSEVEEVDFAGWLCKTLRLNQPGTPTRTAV

Structure (SMILES) | Activity [1] | Activity [2] | Activity [3] | Activity [4] | Activity [5] | Activity [6] | Activity [7] | Activity [8] | Activity [9] | Activity [10] | Activity [11] | Activity [12] | Activity [13] | Activity [14] | Activity [15]
Nc1ccccc1Nc1ccc2c(c1)CCc1ccccc1C2=O | 98% | 92% | 77% | 96% | 99% | 82% | 96% | 72% | 88% | 81% | 85% | 84% | 62% | 83% | 79%
O=C1c2ccc(Nc3ccc(F)cc3F)cc2CCc2ccc(OC[C@H](O)CO)cc21 [Skepinone-L] | 100% | 93% | 95% | 86% | 93% | 85% | 94% | 97% | 90% | 100% | 100% | 90% | 70% | 95% | 95%

Source: ChEMBL document CHEMBL5696441 (Nat Chem Biol, 2011)
